Test results: the CheMixHub viscosity set
± gives the uncertainty stated by the source.

Experiment: xn = mol fraction of the nth substance listed

C=CC#N + CS(C)=O
303.15 K, 101.3 kPa
Conditions | viscosity [mPa·s]
x1 = 0.102 | 1.529 ± 0.0092
x1 = 0.2051 | 1.288 ± 0.0079
x1 = 0.3025 | 1.096 ± 0.0068
x1 = 0.3994 | 0.9277 ± 0.0059
x1 = 0.5057 | 0.771 ± 0.005
x1 = 0.6018 | 0.6508 ± 0.0045
x1 = 0.7045 | 0.5395 ± 0.004
x1 = 0.8066 | 0.4478 ± 0.0036
x1 = 0.8999 | 0.3757 ± 0.0033

O=C1c2ccccc2C(=O)C1(O)O + C[N+](C)(C)CCO.[Cl-]
Conditions | viscosity [mPa·s]
323.15 K, 100 kPa, x2 = 0.571 | 30500

C=CC#N + Cc1cc(C)cc(C)c1
307.4 K, 101.33 kPa
Conditions | viscosity [mPa·s]
x2 = 0.121 | 0.551 ± 0.005
x2 = 0.3367 | 0.495 ± 0.004
x2 = 0.5736 | 0.424 ± 0.004
x2 = 0.649 | 0.406 ± 0.004
x2 = 0.7535 | 0.373 ± 0.003
x2 = 0.9118 | 0.332 ± 0.003

CC(CC(C)(C)C)CC(C)(C)C + Cc1cc(C)cc(C)c1
viscosity [mPa·s], 102 kPa
Conditions | x2 = 0.1002 | x2 = 0.2001 | x2 = 0.3009 | x2 = 0.4006 | x2 = 0.4977 | x2 = 0.6 | x2 = 0.7 | x2 = 0.8001 | x2 = 0.9001
293.15 K | 1.22 ± 0.02 | 1.13 ± 0.02 | 1.05 ± 0.02 | 0.972 ± 0.021 | 0.908 ± 0.021 | 0.848 ± 0.021 | 0.805 ± 0.021 | 0.761 ± 0.021 | 0.727 ± 0.021
303.15 K | 1.03 ± 0.02 | 0.96 ± 0.021 | 0.893 ± 0.021 | 0.837 ± 0.021 | 0.789 ± 0.021 | 0.738 ± 0.021 | 0.697 ± 0.021 | 0.658 ± 0.021 | 0.63 ± 0.021
313.15 K | 0.892 ± 0.021 | 0.831 ± 0.021 | 0.782 ± 0.021 | 0.732 ± 0.021 | 0.691 ± 0.021 | 0.65 ± 0.021 | 0.614 ± 0.021 | 0.58 ± 0.021 | 0.555 ± 0.021
323.15 K | 0.781 ± 0.021 | 0.738 ± 0.021 | 0.693 ± 0.021 | 0.649 ± 0.021 | 0.613 ± 0.021 | 0.578 ± 0.021 | 0.546 ± 0.021 | 0.517 ± 0.021 | 0.494 ± 0.021

CC(CC(C)(C)C)CC(C)(C)C + Cc1ccc(C)c(C)c1
viscosity [mPa·s], 102 kPa
Conditions | x2 = 0.0923 | x2 = 0.2008 | x2 = 0.3004 | x2 = 0.4003 | x2 = 0.4979 | x2 = 0.5999 | x2 = 0.7003 | x2 = 0.7999 | x2 = 0.8992
293.15 K | 1.24 ± 0.02 | 1.16 ± 0.02 | 1.09 ± 0.02 | 1.03 ± 0.02 | 0.975 ± 0.022 | 0.93 ± 0.022 | 0.891 ± 0.021 | 0.864 ± 0.021 | 0.848 ± 0.022
303.15 K | 1.05 ± 0.02 | 0.981 ± 0.021 | 0.926 ± 0.021 | 0.882 ± 0.021 | 0.845 ± 0.021 | 0.808 ± 0.021 | 0.776 ± 0.021 | 0.75 ± 0.021 | 0.736 ± 0.021
313.15 K | 0.906 ± 0.021 | 0.855 ± 0.021 | 0.813 ± 0.021 | 0.774 ± 0.021 | 0.739 ± 0.021 | 0.709 ± 0.021 | 0.679 ± 0.021 | 0.657 ± 0.021 | 0.647 ± 0.021
323.15 K | 0.789 ± 0.021 | 0.749 ± 0.021 | 0.716 ± 0.021 | 0.683 ± 0.021 | 0.652 ± 0.021 | 0.625 ± 0.021 | 0.602 ± 0.021 | 0.582 ± 0.021 | 0.573 ± 0.021

CN(C)c1ccccc1 + Cc1ccccc1
viscosity [mPa·s], 101 kPa
Conditions | x1 = 0.1011 | x1 = 0.1961 | x1 = 0.3125 | x1 = 0.4011 | x1 = 0.493 | x1 = 0.5974 | x1 = 0.701 | x1 = 0.8015 | x1 = 0.8983
298.15 K | 0.597 ± 0.011 | 0.653 ± 0.012 | 0.711 ± 0.012 | 0.767 ± 0.013 | 0.831 ± 0.014 | 0.906 ± 0.015 | 0.989 ± 0.017 | 1.066 ± 0.018 | 1.173 ± 0.019
303.15 K | 0.561 ± 0.01 | 0.604 ± 0.011 | 0.668 ± 0.012 | 0.714 ± 0.012 | 0.77 ± 0.013 | 0.834 ± 0.014 | 0.911 ± 0.015 | 0.988 ± 0.017 | 1.07 ± 0.018
308.15 K | 0.532 ± 0.01 | 0.57 ± 0.01 | 0.625 ± 0.011 | 0.671 ± 0.012 | 0.726 ± 0.013 | 0.782 ± 0.013 | 0.854 ± 0.015 | 0.918 ± 0.015 | 0.999 ± 0.017
313.15 K | 0.499 ± 0.009 | 0.536 ± 0.01 | 0.586 ± 0.011 | 0.619 ± 0.011 | 0.664 ± 0.012 | 0.726 ± 0.013 | 0.78 ± 0.013 | 0.851 ± 0.015 | 0.914 ± 0.015
